Experimental data as given in ChEMBL document CHEMBL4020847, “Discovery of an Orally Bioavailable Inhibitor of Defective in Cullin Neddylation 1 (DCN1)-Mediated Cullin Neddylation” (J Med Chem, 2018).

Experiments:
DCN1-like protein 1 = DCN1-like protein 1 (Homo sapiens, UniProt Q96GG9)
Description: Inhibition of biotin-labeled DCN1 (unknown origin) assessed as reduction in protein interaction with Ac-UBE2M12-AlexaFluor488 after 1 hr by TR-FRET assay

[1] = Half life in mouse liver microsomes at 0.8 uM by LC-MS/MS analysis; assay type: ADME, microsome
[2] = Intrinsic clearance in mouse liver microsomes at 0.8 uM by LC-MS/MS analysis; assay type: ADME, microsome; details: read-out: CLH
Liver [3] = assay: Drug metabolism in mouse liver microsomes assessed as aromatic ring oxidation at 0.8 uM by LC-MS/MS analysis; assay type: ADME, microsome
Liver [4] = assay: Drug metabolism in mouse liver microsomes assessed as 1-benzyl-1-(piperidin-4-yl)-3-(3-(trifluoromethyl)phenyl)urea formation at 0.8 uM by LC-MS/MS analysis; assay type: ADME, microsome
Liver [5] = assay: Drug level in mouse liver microsomes treated with 1-benzyl-1-(1-(cyclopropylmethyl)piperidin-4-yl)-3-(3-(trifluoromethyl)phenyl)urea at 0.8 uM by LC-MS/MS analysis; assay type: ADME, microsome
Mus musculus [6] = assay: Half life in mouse at 0.5 to 1.5 mg/kg, iv administered as single dose; assay type: ADME, organism-based; details: in vivo
Mus musculus [7] = assay: Volume of distribution in mouse at 0.5 to 1.5 mg/kg, iv administered as single dose; assay type: ADME, organism-based; details: in vivo
Mus musculus [8] = assay: Toxicity in mouse at 0.5 to 1.5 mg/kg, iv administered as single dose up to 48 hrs; assay type: organism-based; details: in vivo
Mus musculus [9] = assay: Clearance in mouse at 0.5 to 1.5 mg/kg, iv administered as single dose; assay type: ADME, organism-based; details: in vivo
Plasma = assay: Plasma concentration in mouse at 0.5 to 1.5 mg/kg, iv administered as single dose after 2 hrs; assay type: ADME, organism-based; details: in vivo, BLD = below limit of detection

Sequence of DCN1-like protein 1 (Q96GG9 whole entry): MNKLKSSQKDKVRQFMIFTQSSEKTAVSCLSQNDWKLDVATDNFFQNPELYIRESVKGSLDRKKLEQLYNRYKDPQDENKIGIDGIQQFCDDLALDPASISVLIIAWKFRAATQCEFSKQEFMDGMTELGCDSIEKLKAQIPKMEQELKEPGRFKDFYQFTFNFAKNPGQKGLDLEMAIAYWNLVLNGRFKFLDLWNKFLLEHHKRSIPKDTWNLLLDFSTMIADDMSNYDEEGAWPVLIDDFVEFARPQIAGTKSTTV

Row | Structure (SMILES) | IC50 (DCN1-like protein 1) | half-life at 0.8 µM [1] | other results
1 | CCCCN1CCC(N(Cc2ccccc2)C(=O)Nc2cccc(C)c2)CC1 | 1300 nM | 10.7 min | 
2 | O=C(Nc1cc(F)cc(C(F)(F)F)c1)N(Cc1ccccc1)C1CCN(Cc2cccc(Oc3ccccc3)c2)CC1 | > 24000 nM |  | 
3 | CCCN1CCC(N(Cc2cc(F)cc(C(F)(F)F)c2)C(=O)Nc2cccc(C(F)(F)F)c2)CC1 |  | 16.3 min | 
4 | CCCC(C)N1CCC(N(Cc2ccccc2)C(=O)Nc2ccc(C(F)(F)F)cc2)CC1 (stereo unspecified) | 314 nM | 27.3 min | 
5 | COc1ccccc1CN1CCC(N(Cc2ccccc2)C(=O)Nc2cc(F)cc(C(F)(F)F)c2)CC1 | > 25000 nM |  | 
6 | CCCC(C)N1CCC(N(Cc2ccccc2)C(=O)Nc2ccc(C)c(F)c2)CC1 (stereo unspecified) |  | 9 min | 
7 | CCCCN1CCC(N(Cc2ccccc2)C(=O)Nc2cccc(C(F)(F)F)c2F)CC1 |  | ≤ 6 min | 
8 | CCCCN1CCC(N(Cc2ccccc2)C(=O)Nc2cccc(F)c2)CC1 |  | ≤ 6 min | CLint scaled at 0.8 µM [2]: ≥ 500 mL/min/kg
9 | CCCC(C)N1CCC(N(Cc2ccccc2)C(=O)Nc2cc(C(F)(F)F)ccc2F)CC1 (stereo unspecified) | 7440 nM | 48.5 min | 
10 | CCCC(C)N1CCC(N(Cc2ccccc2)C(=O)Nc2ccc3ccccc3c2)CC1 (stereo unspecified) | 18 nM | ≤ 6 min | CLint scaled at 0.8 µM [2]: ≥ 500 mL/min/kg
11 | CCCCN1CCC(N(Cc2ccccc2)C(=O)Nc2cc(F)cc(F)c2)CC1 |  | ≤ 6 min | CLint scaled at 0.8 µM [2]: ≥ 500 mL/min/kg
12 | CCCCN1CCC(N(Cc2ccc3c(c2)OCO3)C(=O)Nc2cccc(C(F)(F)F)c2)CC1 |  | 14.7 min | 
13 | O=C(Nc1cc(F)cc(C(F)(F)F)c1)N(Cc1ccccc1)C1CCN(Cc2ccncc2)CC1 | > 28000 nM |  | 
14 | Cn1cncc1CN1CCC(N(Cc2ccccc2)C(=O)Nc2cc(F)cc(C(F)(F)F)c2)CC1 | > 24000 nM |  | 
15 | CCCCN1CCC(N(Cc2ccccc2)C(=O)Nc2ccc(F)c(Cl)c2)CC1 |  | 84 min | 
16 | CCCC(C)N1CCC(N(Cc2ccccc2)C(=O)Nc2cccc(Cl)c2)CC1 (stereo unspecified) | 304 nM | ≤ 6 min | 
17 | CCCC(C)N1CCC(N(Cc2ccccc2)C(=O)Nc2ccc(I)cc2)CC1 (stereo unspecified) | 54 nM | 29.9 min | 
18 | O=C(Nc1cccc(C(F)(F)F)c1)N(Cc1ccccc1)C1CCN(CC2CC2)CC1 |  | < 6 min | Drug metabolism (Liver [3]): Metabolite_Detected; Drug metabolism (Liver [4]): Metabolite_Detected
19 | CCCC(C)N1CCC(N(Cc2ccccc2)C(=O)Nc2cc(F)cc(C(F)(F)F)c2)CC1 (stereo unspecified) |  | 11.8 min | 

Row | Structure (SMILES) | IC50 (DCN1-like protein 1) | half-life at 0.8 µM [1] | other results
20 | CCCN1CCC(N(Cc2ccccc2)C(=O)Nc2cccc(C(F)(F)F)c2)CC1 |  | 10.2 min | 
21 | CCCC(C)N1CCC(N(Cc2ccccc2)C(=O)Nc2ccc3c(c2)CCC3)CC1 (stereo unspecified) |  | ≤ 6 min | 
22 | CCCC(C)N1CCC(N(Cc2ccccc2)C(=O)Nc2ccc(C(C)(C)C)cc2)CC1 (stereo unspecified) | 1720 nM |  | 
23 | O=C(Nc1cc(F)cc(C(F)(F)F)c1)N(Cc1ccccc1)C1CCN(Cc2nc3ccccc3s2)CC1 | > 25000 nM |  | 
24 | CCCCN1CCC(N(Cc2ccccc2)C(=O)Nc2cc(F)cc(C(F)(F)F)c2)CC1 |  | 146 min | 
25 | O=C(Nc1cccc(C(F)(F)F)c1)N(Cc1ccccc1)C1CCNCC1 |  |  | Drug metabolism (Liver [5]): Metabolite_Detected
26 | CCCC(C)N1CCC(N(Cc2ccccc2)C(=O)Nc2ccc(C(C)C)cc2)CC1 (stereo unspecified) |  | 10.6 min | 
27 | Cn1ccnc1CN1CCC(N(Cc2ccccc2)C(=O)Nc2cc(F)cc(C(F)(F)F)c2)CC1 | > 28000 nM |  | 
28 | CCCCN1CCC(N(Cc2ccccc2)C(=O)Nc2ccc(F)c(C(F)(F)F)c2)CC1 | 612 nM | 116 min | 
29 | Cn1ccc2cc(CN3CCC(N(Cc4ccccc4)C(=O)Nc4cc(F)cc(C(F)(F)F)c4)CC3)ccc21 | > 21000 nM |  | 
30 | CCCC(C)N1CCC(N(Cc2ccccc2)C(=O)Nc2ccc(Cl)cc2)CC1 (stereo unspecified) | 112 nM | 22.1 min | 
31 | O=C(Nc1cccc(C(F)(F)F)c1)NC1CCN(Cc2ccccc2)CC1 |  | 35.5 min | 
32 | CCCC(C)N1CCC(N(Cc2ccccc2)C(=O)Nc2ccc(C(F)(F)F)nc2C)CC1 (stereo unspecified) | 13300 nM | > 240 min | 
33 | CCCC(C)N1CCC(N(Cc2ccccc2)C(=O)Nc2ccc(F)c(F)c2)CC1 (stereo unspecified) |  | 11.3 min | 
34 | CCCC(C)N1CCC(N(Cc2ccccc2)C(=O)Nc2ccc(F)c(C(F)(F)F)c2)CC1 (stereo unspecified) | 290 nM | 23.6 min | 
35 | CCCC(C)N1CCC(N(Cc2ccccc2)C(=O)Nc2ccc3c(c2)OCO3)CC1 (stereo unspecified) |  | ≤ 6 min | CLint scaled at 0.8 µM [2]: ≥ 500 mL/min/kg
36 | COc1cccc(CN2CCC(N(Cc3ccccc3)C(=O)Nc3cc(F)cc(C(F)(F)F)c3)CC2)c1 | > 28000 nM |  | 
37 | CCCCN1CCC(N(Cc2ccccc2)C(=O)Nc2cccc(Cl)c2)CC1 |  | ≤ 6 min | 
38 | CCCC(C)N1CCC(N(Cc2ccccc2)C(=O)Nc2cccc(C(C)C)c2)CC1 (stereo unspecified) | 353 nM | 13.4 min | 

Row | Structure (SMILES) | IC50 (DCN1-like protein 1) | half-life at 0.8 µM [1] | other results
39 | CCCC(C)N1CCC(N(Cc2ccccc2)C(=O)Nc2cc(Cl)ccc2F)CC1 (stereo unspecified) | > 34000 nM | 14.9 min | 
40 | CCCC(C)N1CCC(N(Cc2ccccc2)C(=O)Nc2ccc(Br)cc2)CC1 (stereo unspecified) | 68 nM | 23.2 min | 
41 | Cc1ccc(CN2CCC(N(Cc3ccccc3)C(=O)Nc3cc(F)cc(C(F)(F)F)c3)CC2)o1 | > 24000 nM |  | 
42 | CCCN1CCC(N(Cc2ccco2)C(=O)Nc2cccc(C(F)(F)F)c2)CC1 |  | 8.22 min | 
43 | CCCC(C)N1CCC(N(Cc2ccccc2)C(=O)Nc2ccc3ncsc3c2)CC1 (stereo unspecified) |  | 14.3 min | 
44 | CCCC(C)N1CCC(N(Cc2ccccc2)C(=O)Nc2cccc(C(F)(F)F)c2)CC1 (stereo unspecified) |  | 19.6 to 19.8 min | t1/2 (Mus musculus [6]): 8.4 min; Vd (Mus musculus [7]): 87.3 to 176 L/kg; CLint scaled at 0.8 µM [2]: 165 to 170 mL/min/kg; Activity (Mus musculus [8]): Non-Toxic; CL (Mus musculus [9]): 700 mL/min/kg; Cp (Plasma): Bld
45 | CCCCN1CCC(N(Cc2ccccc2)C(=O)Nc2cccc(C#N)c2)CC1 | 4250 nM | 9.3 min | 
46 | CCCC(C)N1CCC(N(Cc2ccccc2)C(=O)Nc2cccc(F)c2)CC1 (stereo unspecified) | 1690 nM | ≤ 6 min | 
47 | CCCCN1CCC(N(Cc2ccccc2)C(=O)Nc2cccc(C(F)(F)F)c2)CC1 |  | 9 min | 
48 | CCCC(C)N1CCC(N(Cc2ccccc2)C(=O)Nc2cc(F)cc(Cl)c2)CC1 (stereo unspecified) |  | ≤ 6 min | CLint scaled at 0.8 µM [2]: ≥ 500 mL/min/kg
49 | CCCC(C)N1CCC(N(Cc2ccccc2)C(=O)Nc2ccc(C)cc2)CC1 (stereo unspecified) | 356 nM | 9.6 min | 
50 | CCCC(C)N1CCC(N(Cc2ccccc2)C(=O)Nc2ccc(Cl)c([N+](=O)[O-])c2)CC1 (stereo unspecified) |  | 22.7 min | 
51 | CCCCN1CCC(N(Cc2ccccc2)C(=O)Nc2ccc(C)c(Cl)c2)CC1 | 325 nM | 17.2 min | 
52 | O=C(Nc1cc(F)cc(C(F)(F)F)c1)N(Cc1ccccc1)C1CCN(Cc2ccc(Cc3ccccc3)cc2)CC1 | > 22000 nM |  | 
53 | CC(C)(C)N1CCC(N(Cc2ccc3c(c2)OCO3)C(=O)Nc2cccc(C(F)(F)F)c2)CC1 |  | 7.44 min | 
54 | CCCC(C)N1CCC(N(Cc2ccccc2)C(=O)Nc2ccc3ncccc3c2)CC1 (stereo unspecified) | > 20000 nM |  | 
55 | CCCN1CCC(N(Cc2ccc3c(c2)OCO3)C(=O)Nc2cccc(C(F)(F)F)c2)CC1 |  | < 6 min | 
56 | CCCC(C)N1CCC(N(Cc2ccccc2)C(=O)Nc2ccc(C#N)c(C(F)(F)F)c2)CC1 (stereo unspecified) |  | 55.9 min | 
